Measurements taken from patent US20090076092A1, “METHOD FOR DISRUPTING REPRODUCTIVE PERFORMANCE OF ARTHROPODS” (priority 2006, published 2009).

Experiments:
adult thrips = assay: Previous study of adult thrips mortality; format: in vivo, Frankliniella occidentalis; details: read-out: adult mortality
From the text: (§1) The sub-lethal concentrations or doses used in the various tests for the specific pest species and populations tested in the context of the present invention were estimated from multiple-rate, dose-finding tests to determine the control rates and activity break rates. […] Therefore, depending on the target pest species, either the LC50 or a suitable concentration between LC50 and LC20 was selected as the sub-lethal dose. The specific procedures used to select the respective doses are described in each Test.
Thus, the sub-lethal concentration of Compound 2 was selected to be 10 ppm in the test treatments. Test solutions were prepared by diluting with water to the selected concentration. Treatments included Compound 2 at 10 ppm as well as a control without test compound.

[1] = system: diamondback moth (Plutella xylostella); assay: Test G: number of eggs (fecundity) of adult diamondback moth; format: in vivo; details: 10 ppm, control itself gave very few eggs
From the text: For evaluating the reproductive performance effects on diamondback moth (Plutella xylostella), a minimum of 120 larvae of diamondback moth of each sex were used. Male and female individuals of late instar larvae were separated and caged in individual containers containing Chinese kale. Male diamondback moths were identified by a white dot on the abdomen at the late instar larval stage. When pupae emerged, each pupa was caged separately until it emerged as adult.
(§2) In addition, a control without test compound was included.
Groups of 40 newly emerged (<24 hours) moths of the same sex were placed inside a meshed cage. The caged adult moths were then sprayed with the test solution, using a CO2 backpack sprayer at 500 L/Ha. For the control treatment, the adults were sprayed with water at a similar spray volume. The groups of treated individuals were then transferred into a clean container with a source of adult diet (i.e. a cotton wick soaked in 10% sucrose solution). Separate containers were used for different groups of treated insects. One day after treatment, the numbers of live, moribund and dead adults were counted. One live treated male and one live treated female were placed together in a copulation cage, which was a 300 mL clear plastic cup covered with nylon screen supplied with an adult diet source of 10% sucrose solution.
Each pair of virgin adults was a replicate, and each treatment consisted of 10 to 20 replicates. Every day each pair of moths was moved to a new cup supplied with a diet of 10% sucrose solution.
The number of eggs laid per female moth was counted daily during the two days when the female moths actively produced viable eggs. The results, listed in Table G, indicate that no meaningful comparative information can be inferred, as the even the Control provided very few eggs per female moth; this indicates a systemic reproduction problem from unknown causes. However, had the Control worked, we expect to see the reproductive performance effects on diamondback moth.

[2] = system: green peach aphid (Myzus persicae Sulzer); assay: Test B: nymph production by green peach aphid after 24 hours exposure on treated radish plants; format: in vivo; details: for Living (%) / On plant (%): 1 DAT; for Living (%): all aphids alive 24 h after treatment; for On plant (%): all aphids on the treated plant
Protocol: For evaluating reproductive performance effects on green peach aphid (Myzus persicae Sulzer), each test unit consisted of a radish plant grown in a 6 cm×6 cm square pot infested with a mixed population (nymphs and adults) of green peach aphids from a laboratory-reared culture. Each plant was infested with about 100 aphids. Test solutions were prepared and sprayed on the test plants (2 plants per treatment) as described for TEST A. Treatments included Compound 1 at 100 and 500 ppm, Compound 2 at 4 and 6 ppm, and a control without test compound.
Aphids were kept on the treated plants for 24 hours, and then only adult aphids staying on the treated plant were transferred to untreated radish plants grown singly in a 6 cm×6 cm square pots. One test unit or one replicate consisted of a single adult aphid on a radish plant in a pot. The number of nymphs in each replicate was counted 4 and 6 days after treatment. At the higher concentration of each test compound a total of 45 replicates were used, and at the lower concentration of each test compound a total of 30 replicates were used. In addition, prior to transferring aphids singly to the untreated radish plants one day after treatment (1 DAT), the total number of aphids living and those remaining on the treated plant were counted.
The results are listed in Table B. Square-root transformation was done on the number of nymphs produced per adult (female) aphid, and the data were analyzed using analysis of variance (ANOVA) and Fisher's Least Significant Difference (LSD) tests for separation of means.

housefly = assay: Dose-finding test for sub-lethal dose on housefly; format: in vivo, Musca domestica; details: probit analysis extrapolation from preliminary dose-response curves at 50, 100, 500 and 1000 ppm
From the text: as §1
(§3) The LC20 sub-lethal dose of Compound 2 on the housefly was estimated to be 2 ppm using probit analysis extrapolation based on the preliminary dose-response curves obtained at concentrations of 50, 100, 500 and 1000 ppm. Two treatments consisted of Compound 2 at 2 ppm and a control without test compound. Each treatment had 10 replicates.

[3] = system: housefly, Musca domestica (L.); assay: Test A: reproductive performance of adult houseflies after spray at sub-lethal concentration; format: in vivo; details: 2 ppm spray of adults; totaled on the 8th day after treatment
From the text: For evaluating housefly, Musca domestica (L.), each test unit consisted of a pair of virgin adult female and male houseflies of similar age (±1 day). To obtain the adult flies used in the study, pupae of approximately the same age (±1 day) were separated by sex, and placed in separate containers until adults emerged.
as §3
After emergence, the adult houseflies were placed in a meshed cage and were sprayed with test solutions using a belt sprayer. Test solutions were applied using a compressed air-propelled (moving) belt sprayer equipped with an 8001E Tee Jet flat fan spray nozzle. The nozzles were positioned at about 20 cm above the test unit, and calibrated at 276 kPa to deliver volumes equivalent to 500 L/ha. […]
Observations of the number of eggs laid per adult female were made daily for 7 days. The cotton wicks containing eggs were removed daily and counted, and then kept in a growth chamber at 26° C., 75% relative humidity and 16 hours of light per day to allow egg hatching and emergence of neonates. […]

diamondback moth = assay: Previous laboratory studies of diamondback moth mortality; format: in vivo; details: Plutella xylostella, read-out: mortality of the diamondback moth (LC20)
From the text: as §1, §2

CNC(=O)c1cc(C#N)cc(C)c1NC(=O)c1cc(Br)nn1-c1ncccc1Cl [Compound 2, 3-bromo-1-(3-chloro-2-pyridinyl)-N-[4-cyano-2-methyl-6-[(methylamino)-carbonyl]phenyl]-1H-pyrazole-5-carboxamide]
mortality at 10 ppm (adult thrips): < 50%
No. of eggs per female moth ([1]; 1 DAT): 0
No. of eggs per female moth ([1]; 2 DAT): 0.2
living aphids that did not stay on the plant ([2]; 4 and 6 ppm, one day after treatment): 28-48%
Living (%) ([2]; 4 ppm): 97.6%
On plant (%) ([2]; 4 ppm): 72.0%
No. of nymphs (mean ± SE) ([2]; 4 ppm, 6 DAT, per adult): 6.1 ± 0.6 a
Living (%) ([2]; 6 ppm): 82.3%
On plant (%) ([2]; 6 ppm): 51.1%
LC20 sub-lethal dose (housefly): 2 ppm
Mean number of neonates per female [3]: 16.7
mortality at 10 ppm (diamondback moth): ~20%
